Results on 23 molecules are retold here after patent US20240298643A1, “BENZIMIDAZOLE COMPOUND OR SALT THEREOF, PREPARATION METHOD THEREFOR AND USE THEREOF, AND INSECTICIDE AND ACARICIDE AND USE THEREOF” (QINGDAO KANGQIAO PESTICIDES AND CHEMICALS GROUP CO., LTD., priority 2021, published 2024).

This assay deals with Tetranychus cinnabarinus. In words: acaricidal activity test, spraying kidney bean seedlings inoculated with mites. Type of assay: in vivo. To be noted: sprayed on kidney bean seedlings, living mites counted after 72 hours, 25° C. How it is done:
This test example tested the acaricidal activity of the compounds prepared above, in particular against Tetranychus cinnabarinus, and a specific test process was as follows: • (1) compounds to be tested were dissolved with acetone, and the resulting solution was diluted with a 0.1 wt % Tween 80 aqueous solution to a desired concentration (see test examples 1-A to 1-D below in detail) to prepare medicaments, with the acetone content of not more than 5 wt %; • (2) one real leaf was removed from kidney bean seedlings grown to two real leaves, and the number of mites inoculated was investigated 24 hours after inoculation of Tetranychus cinnabarinus (the number of Tetranychus cinnabarinus inoculated for each kidney bean seedling was 50-150). The whole plants of three kidney bean seedlings were separately sprayed with the medicaments prepared in the step (1) by using a hand-held sprayer (the spray amount was 0.5 mL per plant). After the treatment, the kidney bean seedlings were placed in a constant temperature observation room (25° C.) for observation, the number of living mites was investigated after 72 hours, and the lethality was calculated: Lethality (%)=(the number of mites inoculated−the number of living mites after the medicaments are sprayed)/the number of mites inoculated×100.

As to `CCS(=O)(=O)n1c(-c2ccc(F)c(C(F)(F)F)c2)nc2ccccc21` [Compound 1-27], the Lethality is given as 90% (6.25 mg/L), 100% (25 mg/L) and 100% (100 mg/L).
Take `CCS(=O)(=O)n1c(-c2ccc(Cl)c(C(F)(F)F)c2)nc2ccccc21` [Compound 1-28]: the Lethality is recorded as 97% (6.25 mg/L), 100% (25 mg/L) and 100% (100 mg/L).
Molecule `CCS(=O)(=O)n1c(-c2cc(C(F)(F)F)cc(C(F)(F)F)c2)nc2ccccc21` [Compound 1-47] had a Lethality (6.25 mg/L) of 99%, a Lethality (25 mg/L) of 100% and a Lethality (100 mg/L) of 100%.
As for `CCS(=O)(=O)n1c(-c2ccc(F)c(C(F)(F)F)c2)nc2cc(F)c(F)cc21` [Compound 1-56], the Lethality was 95% (6.25 mg/L), 100% (25 mg/L) and 100% (100 mg/L).
Consider `CCS(=O)(=O)n1c(-c2ccc(Cl)c(C(F)(F)F)c2)nc2cc(F)c(F)cc21` [Compound 1-57], for which the Lethality is, setting by setting: (6.25 mg/L) 92%; (25 mg/L) 100%; (100 mg/L) 100%.
Regarding `CS(=O)(=O)n1c(-c2cc(Cl)cc(C(F)(F)F)c2)nc2ccccc21` [Compound 1-133], the Lethality came out at 99% (6.25 mg/L), 100% (25 mg/L) and 100% (100 mg/L).
In the case of `CCS(=O)(=O)n1c(-c2cc(F)cc(C(F)(F)F)c2)nc2ccccc21` [Compound 1-174], the Lethality is given as 98% (6.25 mg/L), 98% (25 mg/L) and 100% (100 mg/L).
As for `CCS(=O)(=O)n1c(-c2cc(Br)cc(OC(F)(F)F)c2)nc2ccccc21` [Compound 1-186], the Lethality runs as follows: (6.25 mg/L) 100%; (25 mg/L) 100%; (100 mg/L) 100%.
For the molecule `CCS(=O)(=O)n1c(-c2cc(Cl)cc(C(F)(F)F)c2)nc2ccccc21` [Compound 1-213], the Lethality turned out to be 99% (6.25 mg/L), 100% (25 mg/L) and 100% (100 mg/L).
Turning to `CCS(=O)(=O)n1c(-c2cc(Br)cc(C(F)(F)F)c2)nc2ccccc21` [Compound 1-214], the Lethality is 97% (6.25 mg/L), 100% (25 mg/L) and 100% (100 mg/L).
`CCS(=O)(=O)n1c(-c2cc(C#N)cc(C(F)(F)F)c2)nc2ccccc21` [Compound 1-218]: the Lethality is listed as 98% (6.25 mg/L), 99% (25 mg/L) and 100% (100 mg/L).
With `CCS(=O)(=O)n1c(-c2cc([N+](=O)[O-])cc(C(F)(F)F)c2)nc2ccccc21` [Compound 1-235], the Lethality by setting is: (6.25 mg/L) 99%; (25 mg/L) 99%; (100 mg/L) 100%.
Consider `CCS(=O)(=O)n1c(-c2cc(Cl)cc(OC(F)(F)F)c2)nc2ccccc21` [Compound 1-239], for which the Lethality amounted to 100% (6.25 mg/L), 100% (25 mg/L) and 100% (100 mg/L).
With `CCCS(=O)(=O)n1c(-c2cc(C(F)(F)F)cc(C(F)(F)F)c2)nc2ccccc21` [Compound 1-254], the Lethality stood at 97% (6.25 mg/L), 100% (25 mg/L) and 100% (100 mg/L).
Turning to `CCCCS(=O)(=O)n1c(-c2cc(C(F)(F)F)cc(C(F)(F)F)c2)nc2ccccc21` [Compound 1-255], the Lethality by setting is: (6.25 mg/L) 91%; (25 mg/L) 100%; (100 mg/L) 100%.
Turning to `CCS(=O)(=O)n1c(-c2cc(C(F)(F)F)cc(C(F)(F)F)c2)nc2cc(F)c(F)cc21` [Compound 1-257], the Lethality came to 98% (6.25 mg/L), 100% (25 mg/L) and 100% (100 mg/L).
On to `CCS(=O)(=O)n1c(-c2cc(C(F)(F)F)cc(C(F)(F)F)c2)nc2cc(Cl)c(Cl)cc21` [Compound 1-265], for which the Lethality by setting is: (6.25 mg/L) 100%; (25 mg/L) 100%; (100 mg/L) 100%.
For the molecule `CCS(=O)(=O)n1c(-c2ccccc2)nc2ccccc21` [KC1, reference compound], the Lethality reads like this: (25 mg/L) 52%; (100 mg/L) 82%.
The matching figures for `CCS(=O)(=O)n1c(-c2ccccc2F)nc2ccccc21` [KC2, reference compound]: 49% and 98%.
The matching figures for `CCS(=O)(=O)n1c(-c2ccccc2Cl)nc2ccccc21` [KC3, reference compound]: 70% and 88%.
The matching figures for `CCS(=O)(=O)n1c(-c2ccc(Cl)cc2)nc2ccccc21` [KC4, reference compound]: 57% and 37%.
As for `CCS(=O)(=O)n1c(-c2ccc(F)cc2)nc2ccccc21` [KC5, reference compound], the Lethality (25 mg/L) is 40% and the Lethality (100 mg/L) turned out to be 66%.
For `CCS(=O)(=O)n1c(-c2cc(Cl)cc(Cl)c2)nc2ccccc21` [KC6, reference compound] the same measures were 86% and 100%.
